# Where two headings read alike, the source gives them in different places.
# Tests used:
# [1] = tested on: luciferin/luciferase luminescent reactions; details: for Max RLU / Max Time: 1 mM in ATP luminescent reagent; for Max RLU%: relative to the reaction system without pyrophosphoric acid (no PPi)
# Procedure: To a 5 ml aliquot of this reagent, pyrophosphoric acid (Wako Purechemical Industries, Ltd.) was added to give a final concentration of 1 mM. Subsequently, ATP standard reagent (ATP concentration = 1 x 10^-12 M) included in the kit was dispensed into a microtiter plate at 100 µl/well. […] The same operations were performed on ATP luminescent reagent without pyrophosphoric acid. Further, ATP luminescent reagent to which potassium pyrophosphate or sodium pyrophosphate was added at a final concentration of 1 mM instead of pyrophosphoric acid was also prepared, and the above-described operations were performed.
# [2] = target: T1, luciferase standard enzyme (Photinus pyralis, UniProt P08659); details: 2 mM; for Max RLU / Max Time: with 2 mM sodium diethyldithiocarbamate, 10% glycerol; for Max RLU%: relative to the system without pyrophosphoric acid (no PPi)
# Procedure: A "luciferase luminescent reagent" containing 20 mM tricine, 1.07 mM (MgCO3)4Mg(OH)2.5H2O, 2.67 mM magnesium sulfate, 0.1 mM EDTA, 470 µM luciferin and 530 µM adenosine triphosphate (ATP), pH 7.8 was prepared in accordance with the formulation described in the instructions included in "PicaGene Luminescent Kit" (Toyo Ink Manufacturing Co., Ltd.; product No. PGL100), except that 270 µM CoA and 33.3 mM DTT (thiol reagents) mentioned in the instructions were not added. […] In both reagents thus prepared, glycerol (final concentration: 10%) was allowed to co-exist in order to promote stabilization of luciferase enzyme.
# A luciferase enzyme solution (100 ng/ml) was prepared by diluting "luciferase standard enzyme (10 µg/ml)" included in "PicaGene Luminescent Kit" (Toyo Ink Manufacturing Co., Ltd.; product No. PGL100) with "PicaGene Cell Lysis Reagent LUC" (Toyo Ink Manufacturing Co., Ltd.; product No. PGC50). 10 µl of this luciferase enzyme solution was taken into a cuvette of a luminometer (Berthold, LB9506). First, 100 µl of the "luciferase luminescent reagent" prepared above was added to the enzyme solution. Immediately after the addition, the resulting mixed solution was loaded onto the luminometer, and the quantity of light emitted (RLU/sec) was measured for the initial 200 seconds at intervals of 25 seconds. Then, the quantity of light emitted was measured in the same manner using the "luciferase luminescent reagent (+improvement)".
# [3] = target: T1, luciferase standard enzyme; details: 1.5mM PPiK; relative to w/o pyrophosphoric acid
# Procedure: A "luciferase luminescent reagent" containing 20 mM tricine, 1.07 mM (MgCO3)4Mg(OH)2.5H2O, 2.67 mM magnesium sulfate, 0.1 mM EDTA, 33.3 mM DTT, 470 µM luciferin, 270 µM CoA and 530 µM adenosine triphosphate (ATP), pH 7.8 was prepared in accordance with the formulation described in the instructions included in "PicaGene Luminescent Kit" (Toyo Ink Manufacturing Co., Ltd.; product No. PGL100). […] Further, glycerol and DTT were allowed to co-exist in each of the above luminescent reagents at final concentrations of 10% and 1 mM, respectively, in order to promote the stabilization of luciferase enzyme.
# A luciferase enzyme solution (100 ng/ml) was prepared by diluting "luciferase standard enzyme (10 µg/ml)" included in "PicaGene Luminescent Kit" (Toyo Ink Manufacturing Co., Ltd.; product No. PGL100) with "PicaGene Cell Lysis Reagent LUC" (Toyo Ink Manufacturing Co., Ltd.; product No. PGC50). 10 µl of this luciferase enzyme solution was dispensed into each well of a microtiter plate. Subsequently, 100 µl of the above-described luminescent reagent was added to the enzyme solution in each well. […] Since luciferin/luciferase luminescent reactions are greatly affected by temperature, all operations and measurements with a luminometer were performed in a thermostatic chamber set at 23°C.
# Then, the above-described operations were repeated. […]
# luciferase enzyme = test: ATP assay, time course of light emission with ATP luminescent reagent (Example 3, microtiter plate, 23°C); type: biochemical; details: 2 mM, added as organic sulfur reagent
# Source text: Then, the above-described operations were repeated.
# T1 sequence (P08659 whole entry): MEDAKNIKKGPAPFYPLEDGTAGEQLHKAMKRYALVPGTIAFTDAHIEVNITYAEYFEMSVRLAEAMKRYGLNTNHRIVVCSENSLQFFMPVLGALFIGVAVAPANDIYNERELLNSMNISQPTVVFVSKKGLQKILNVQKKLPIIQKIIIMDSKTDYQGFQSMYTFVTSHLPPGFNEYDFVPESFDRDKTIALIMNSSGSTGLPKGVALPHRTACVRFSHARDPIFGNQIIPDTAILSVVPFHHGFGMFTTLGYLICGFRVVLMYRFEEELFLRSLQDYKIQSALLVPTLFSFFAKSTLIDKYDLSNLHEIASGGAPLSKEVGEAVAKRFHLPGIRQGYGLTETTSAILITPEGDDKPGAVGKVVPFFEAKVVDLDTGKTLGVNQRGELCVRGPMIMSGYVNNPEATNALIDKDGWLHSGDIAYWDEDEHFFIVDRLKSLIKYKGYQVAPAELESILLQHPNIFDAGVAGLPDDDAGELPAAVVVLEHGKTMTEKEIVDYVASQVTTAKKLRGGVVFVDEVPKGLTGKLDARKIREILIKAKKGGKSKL
Compound,Max RLU [1],Max Time [1],"initial luminescence ([1]; 1 mM, relative to the initial luminescence with the ATP luminescent reagent)",Max RLU% ([1]; 1 mM),time at which the quantity of light emitted reached the maximum value ([1]; after the start of the measurement),Max RLU [2],Max Time [2],Max RLU% [2],Max RLU% [3],effect on the stabilization of luminescent reactions (luciferase enzyme)
"O=P(O)(O)OP(=O)(O)O [PPi, pyrophosphoric acid]",30874.3 RLU,5 min,≤ 50%,48.9%,5 min,67904.5 RLU,6 min,55.4%,,
"O=P([O-])([O-])OP(=O)([O-])[O-].[K+].[K+].[K+].[K+] [PPiK, potassium pyrophosphate]",16800.3 RLU,15 min,,26.6%,,31448.0 RLU,12 min,25.6%,27.5%,
"O=P([O-])([O-])OP(=O)([O-])[O-].[Na+].[Na+].[Na+].[Na+] [PPiNa, sodium pyrophosphate]",15275.5 RLU,25 min,,24.2%,,30290.8 RLU,12 min,24.7%,,
"CCN(CC)C(=S)[S-].[Na+] [organic sulfur reagent, sodium diethyldithiocarbamate]",,,,,,,,,,no effect on the stabilization of luminescent reactions
